In patent US20180207094A1, “IMPROVED TOPICAL KETOPROFEN FORMULATIONS” (Elliptical Therapeutics, LLC, priority 2015, published 2018):

Assays:
[1] = reported; cited from earlier work
[2] = test system: New Zealand rabbits; conditions: rabbit, in vivo

C[C@@H](C(=O)O)c1cccc(C(=O)c2ccccc2)c1 (single isomer, unassigned) [R-enantiomer]
anti-inflammatory and antipyretic activities [1]: little or no

C[C@H](C(=O)O)c1cccc(C(=O)c2ccccc2)c1 (single isomer, unassigned) [S-enantiomer]
potency relative to the racemate [1]: approximately twice as potent as the racemate

CCCCCCCCCCCCOS(=O)(=O)[O-].[Na+] [SDS 5%, sodium dodecyl sulfate]
Overall Edema Score [2]: 0.60 | Overall Erythema Score [2]: 0.20
